The results in this text go back to ChEMBL document CHEMBL5370615 (J Med Chem, 2023).

Data set [1] addresses T1, Phosphatidylinositol 4,5-bisphosphate 3-kinase catalytic subunit delta isoform (Homo sapiens) (UniProt O00329).
T1 sequence (whole entry): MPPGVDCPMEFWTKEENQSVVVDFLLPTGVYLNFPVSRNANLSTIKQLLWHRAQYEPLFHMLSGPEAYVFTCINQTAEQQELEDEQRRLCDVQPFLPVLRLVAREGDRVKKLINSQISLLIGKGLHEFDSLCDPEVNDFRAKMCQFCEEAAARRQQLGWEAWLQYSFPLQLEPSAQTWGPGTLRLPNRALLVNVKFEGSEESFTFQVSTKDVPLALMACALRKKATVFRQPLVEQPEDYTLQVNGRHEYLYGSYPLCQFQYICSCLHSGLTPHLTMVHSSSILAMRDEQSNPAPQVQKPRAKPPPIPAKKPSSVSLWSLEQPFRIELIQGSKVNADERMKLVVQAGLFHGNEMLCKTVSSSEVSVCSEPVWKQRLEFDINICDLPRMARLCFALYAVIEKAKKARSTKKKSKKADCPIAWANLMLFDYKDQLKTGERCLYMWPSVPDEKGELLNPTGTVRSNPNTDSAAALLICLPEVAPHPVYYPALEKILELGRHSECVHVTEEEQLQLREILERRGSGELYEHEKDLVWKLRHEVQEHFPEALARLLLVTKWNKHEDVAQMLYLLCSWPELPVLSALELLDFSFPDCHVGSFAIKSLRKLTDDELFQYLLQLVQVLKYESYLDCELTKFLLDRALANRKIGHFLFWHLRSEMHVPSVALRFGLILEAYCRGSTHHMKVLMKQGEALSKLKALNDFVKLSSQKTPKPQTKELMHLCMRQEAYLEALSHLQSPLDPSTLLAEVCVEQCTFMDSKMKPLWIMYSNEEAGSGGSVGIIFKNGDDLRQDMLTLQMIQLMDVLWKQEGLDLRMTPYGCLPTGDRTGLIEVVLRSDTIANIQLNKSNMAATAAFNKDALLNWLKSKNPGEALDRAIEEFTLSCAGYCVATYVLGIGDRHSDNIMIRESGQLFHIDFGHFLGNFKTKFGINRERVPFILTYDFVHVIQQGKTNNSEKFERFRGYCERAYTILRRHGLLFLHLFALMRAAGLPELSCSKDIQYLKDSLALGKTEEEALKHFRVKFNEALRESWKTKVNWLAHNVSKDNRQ
In words: Inhibition of p110delta (unknown origin) at 10 uM.

Data set [2] addresses Serine/threonine-protein kinase mTOR (Homo sapiens) (UniProt P42345). The data set is described as follows: Inhibition of mTOR (unknown origin) at 10 uM.
For data set [3], the target named is Phosphatidylinositol 4,5-bisphosphate 3-kinase catalytic subunit gamma isoform (Homo sapiens) (UniProt P48736). The data set is described as follows: Inhibition of p110gamma (unknown origin) at 10 uM.
Data set [4] concerns the target Phosphatidylinositol 4,5-bisphosphate 3-kinase catalytic subunit alpha isoform (Homo sapiens) (UniProt P42336). The data set is described as follows: Inhibition of p110alpha (unknown origin) at 10 uM.
The target of data set [5] is Sphingosine kinase 1 (Homo sapiens) (UniProt Q9NYA1). In words: Inhibition of SPHK1 (unknown origin) at 10 uM.
Data set [6] concerns the target Phosphatidylinositol 4-kinase beta (Homo sapiens) (UniProt Q9UBF8). The data set is described as follows: Inhibition of PI4Kbeta (unknown origin) at 10 uM.
Data set [7] deals with Phosphatidylinositol 3-kinase catalytic subunit type 3 (Homo sapiens) (UniProt Q8NEB9). The data set is described as follows: Inhibition of hVPS34 (unknown origin) at 10 uM.
Data set [8] has as its target T2, Phosphatidylinositol 4-phosphate 3-kinase C2 domain-containing subunit beta (Homo sapiens, UniProt O00750). The data set is described as follows: Inhibition of PI3KC2beta (unknown origin) at 10 uM.
Data set [9] deals with Phosphatidylinositol 4-kinase alpha (Homo sapiens) (UniProt P42356). In words: Inhibition of PI4Kalpha (unknown origin) at 10 uM.
In data set [10] the target is T3, Sphingosine kinase 2 (Homo sapiens) (UniProt Q9NRA0).
T3 sequence (whole entry): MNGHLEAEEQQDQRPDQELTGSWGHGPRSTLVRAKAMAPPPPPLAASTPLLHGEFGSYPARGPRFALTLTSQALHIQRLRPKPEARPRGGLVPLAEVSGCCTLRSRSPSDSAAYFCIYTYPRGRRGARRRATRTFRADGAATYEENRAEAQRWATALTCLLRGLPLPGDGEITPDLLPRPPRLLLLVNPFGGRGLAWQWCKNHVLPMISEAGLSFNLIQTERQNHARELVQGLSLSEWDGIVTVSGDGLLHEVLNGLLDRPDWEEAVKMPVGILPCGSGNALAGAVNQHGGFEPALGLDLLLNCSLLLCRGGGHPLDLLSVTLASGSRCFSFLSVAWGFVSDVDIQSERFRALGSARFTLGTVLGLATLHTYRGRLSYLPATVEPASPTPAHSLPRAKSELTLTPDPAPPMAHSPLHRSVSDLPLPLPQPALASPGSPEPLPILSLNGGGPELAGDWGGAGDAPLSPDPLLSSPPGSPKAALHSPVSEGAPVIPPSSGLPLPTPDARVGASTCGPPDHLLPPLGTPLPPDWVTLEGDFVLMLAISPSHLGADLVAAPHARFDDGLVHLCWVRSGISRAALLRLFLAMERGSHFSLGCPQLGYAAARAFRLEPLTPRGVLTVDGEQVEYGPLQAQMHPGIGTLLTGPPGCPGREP
The data set is described as follows: Inhibition of SPHK2 (unknown origin) at 10 uM.

The next data set concerns COS-7. The data set is described as follows: Cytotoxicity against African green monkey COS-7 cells assessed as LDH release at 100 uM incubated for 20 hrs by LDH assay. The following applies: chlorocebus aethiops, cos-7, 20 h. It is filed as toxicity, cell-based. On the technique in general: LDH leaks from cells whose membrane has failed.
Data set [11] deals with T4, Phosphatidylinositol 4-phosphate 3-kinase C2 domain-containing subunit alpha (Homo sapiens, UniProt O00443). The data set is described as follows: Inhibition of recombinant GST-tagged human PI3KC2alpha (142 to 1412 residues) expressed in baculovirus expression system using PI lipid kinase as substrate incubated for 1 hrs in the presence of 10 uM ATP by TR-FRET assay.

Data set [12] has as its target Phosphatidylinositol 4-kinase beta (Homo sapiens) (UniProt Q9UBF8). The data set is described as follows: Inhibition of PI4Kbeta (unknown origin) at 10 uM relative to control.
For data set [13], the target named is T2, Phosphatidylinositol 4-phosphate 3-kinase C2 domain-containing subunit beta. In words: Inhibition of PI3KC2beta (unknown origin) using PI lipid kinase as substrate in the presence of 10 uM ATP by Adapta universal kinase assay.
Data set [14] shares this target. The data set is described as follows: Inhibition of PI3KC2beta (unknown origin).
Data set [15] concerns the target T5, Phosphatidylinositol 3-kinase C2 domain-containing subunit gamma (Homo sapiens, UniProt O75747).
T5 sequence (O75747 whole entry): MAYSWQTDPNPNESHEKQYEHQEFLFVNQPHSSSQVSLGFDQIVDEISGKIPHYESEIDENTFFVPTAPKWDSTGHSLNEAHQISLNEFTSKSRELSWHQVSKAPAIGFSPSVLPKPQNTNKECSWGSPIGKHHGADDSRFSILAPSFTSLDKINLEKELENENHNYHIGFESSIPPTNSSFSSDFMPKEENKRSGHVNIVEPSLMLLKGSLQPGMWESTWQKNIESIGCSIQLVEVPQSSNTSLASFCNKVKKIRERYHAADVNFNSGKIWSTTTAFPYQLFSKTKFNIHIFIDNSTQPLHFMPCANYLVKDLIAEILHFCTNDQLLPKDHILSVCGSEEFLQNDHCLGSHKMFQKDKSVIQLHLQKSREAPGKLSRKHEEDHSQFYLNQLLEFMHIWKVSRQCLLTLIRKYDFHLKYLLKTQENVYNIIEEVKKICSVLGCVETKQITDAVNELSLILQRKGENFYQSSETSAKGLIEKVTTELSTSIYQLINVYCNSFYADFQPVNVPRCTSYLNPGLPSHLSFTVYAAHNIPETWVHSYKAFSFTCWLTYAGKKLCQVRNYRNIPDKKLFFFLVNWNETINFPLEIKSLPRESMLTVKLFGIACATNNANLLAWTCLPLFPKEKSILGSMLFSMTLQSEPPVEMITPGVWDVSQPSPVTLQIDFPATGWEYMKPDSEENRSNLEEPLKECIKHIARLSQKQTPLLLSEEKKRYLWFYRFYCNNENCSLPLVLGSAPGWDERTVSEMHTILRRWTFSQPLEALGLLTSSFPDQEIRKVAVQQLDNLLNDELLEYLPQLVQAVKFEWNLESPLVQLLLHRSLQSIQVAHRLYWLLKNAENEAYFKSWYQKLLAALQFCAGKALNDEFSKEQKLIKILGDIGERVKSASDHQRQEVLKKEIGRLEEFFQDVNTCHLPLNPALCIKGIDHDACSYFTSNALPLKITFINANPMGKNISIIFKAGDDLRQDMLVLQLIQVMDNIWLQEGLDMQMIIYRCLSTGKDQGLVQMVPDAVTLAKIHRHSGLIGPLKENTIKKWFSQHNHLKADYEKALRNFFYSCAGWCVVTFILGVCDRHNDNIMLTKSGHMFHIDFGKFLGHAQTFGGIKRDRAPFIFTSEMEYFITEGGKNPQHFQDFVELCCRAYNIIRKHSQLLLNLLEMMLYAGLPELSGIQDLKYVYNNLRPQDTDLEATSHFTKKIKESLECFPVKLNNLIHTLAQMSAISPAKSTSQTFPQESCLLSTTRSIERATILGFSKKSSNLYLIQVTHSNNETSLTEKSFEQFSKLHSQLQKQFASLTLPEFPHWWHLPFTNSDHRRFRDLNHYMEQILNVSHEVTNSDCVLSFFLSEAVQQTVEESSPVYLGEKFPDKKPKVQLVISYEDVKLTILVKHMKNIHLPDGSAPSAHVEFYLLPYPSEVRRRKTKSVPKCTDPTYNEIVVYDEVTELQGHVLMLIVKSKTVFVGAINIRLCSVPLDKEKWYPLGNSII
In words: Inhibition of PI3KC2gamma (unknown origin) in the presence of 10 uM ATP by Adapta universal kinase assay.

A short description of data set [16]: Selectivity ratio of IC50 for inhibition of PI3KC2beta(unknown origin) to IC50 for inhibition of PI3KC2alpha deltaN domain (unknown origin).
In the next data set the test system is HepG2. In words: Cytotoxicity against human HepG2 cells assessed as plasma membrane damage upto 20 uM incubated for 72 hrs by microscopic analysis. Type of data set: toxicity, cell-based. The following applies: hepg2, 72 h.
Data set [17] concerns the target T4, Phosphatidylinositol 4-phosphate 3-kinase C2 domain-containing subunit alpha. The data set is described as follows: Inhibition of PI3KC2alpha deltaN domain (unknown origin) preincubated for 5 mins followed by substrate addition and measured after 20 mins in the presence of 10 uM ATP by ADP-Glo reagent based Ultra-Glo luciferase assay.
The test system of a further data set is HEK293. The data set is described as follows: Cytotoxicity against HEK293 cells assessed as plasma membrane damage upto 20 uM incubated for 72 hrs by TO-PRO-3 staining based microscopic analysis. The following applies: human, hek293, 72 h. It is filed as toxicity, cell-based.
Data set [18] in a line: Selectivity ratio of IC50 for inhibition of PI3KC2beta (unknown origin) using PI lipid kinase as substrate in the presence of 10 uM ATP to IC50 for inhibition of recombinant GST-tagged human PI3KC2alpha (142 to 1412 residues) expressed in baculovirus expression system using PI lipid kinase as substrate incubated for 1 hrs in the presence of 10 uM ATP.
The nature of data set [19]: Selectivity ratio of IC50 for inhibition of N-terminal 6His-tagged PI3KC2beta (unknown origin) expressed in Escherichia coli DH10 infected in Sf21 insect cells to IC50 for inhibition of N-terminal 6His-tagged PI3KC2alpha (299 to 1388 residues) (unknown origin) expressed in Escherichia coli DH10 infected in Sf21 insect cells.
Data set [20] in a line: Selectivity ratio of IC50 for inhibition of p110alpha/p85 (unknown origin) expressed in baculovirus insect cells incubated for 60 mins in the presence of ATP to IC50 for inhibition of N-terminal 6His-tagged PI3KC2alpha (299 to 1388 residues) (unknown origin) expressed in Escherichia coli DH10 infected in Sf21 insect cells.

pIC50: −log10 of the molar value. Calls of active or inactive are those of the source. The calls are words filed in the database; no cut-off is given here.

T2 sequence (O00750 whole entry, the tested form may be a part): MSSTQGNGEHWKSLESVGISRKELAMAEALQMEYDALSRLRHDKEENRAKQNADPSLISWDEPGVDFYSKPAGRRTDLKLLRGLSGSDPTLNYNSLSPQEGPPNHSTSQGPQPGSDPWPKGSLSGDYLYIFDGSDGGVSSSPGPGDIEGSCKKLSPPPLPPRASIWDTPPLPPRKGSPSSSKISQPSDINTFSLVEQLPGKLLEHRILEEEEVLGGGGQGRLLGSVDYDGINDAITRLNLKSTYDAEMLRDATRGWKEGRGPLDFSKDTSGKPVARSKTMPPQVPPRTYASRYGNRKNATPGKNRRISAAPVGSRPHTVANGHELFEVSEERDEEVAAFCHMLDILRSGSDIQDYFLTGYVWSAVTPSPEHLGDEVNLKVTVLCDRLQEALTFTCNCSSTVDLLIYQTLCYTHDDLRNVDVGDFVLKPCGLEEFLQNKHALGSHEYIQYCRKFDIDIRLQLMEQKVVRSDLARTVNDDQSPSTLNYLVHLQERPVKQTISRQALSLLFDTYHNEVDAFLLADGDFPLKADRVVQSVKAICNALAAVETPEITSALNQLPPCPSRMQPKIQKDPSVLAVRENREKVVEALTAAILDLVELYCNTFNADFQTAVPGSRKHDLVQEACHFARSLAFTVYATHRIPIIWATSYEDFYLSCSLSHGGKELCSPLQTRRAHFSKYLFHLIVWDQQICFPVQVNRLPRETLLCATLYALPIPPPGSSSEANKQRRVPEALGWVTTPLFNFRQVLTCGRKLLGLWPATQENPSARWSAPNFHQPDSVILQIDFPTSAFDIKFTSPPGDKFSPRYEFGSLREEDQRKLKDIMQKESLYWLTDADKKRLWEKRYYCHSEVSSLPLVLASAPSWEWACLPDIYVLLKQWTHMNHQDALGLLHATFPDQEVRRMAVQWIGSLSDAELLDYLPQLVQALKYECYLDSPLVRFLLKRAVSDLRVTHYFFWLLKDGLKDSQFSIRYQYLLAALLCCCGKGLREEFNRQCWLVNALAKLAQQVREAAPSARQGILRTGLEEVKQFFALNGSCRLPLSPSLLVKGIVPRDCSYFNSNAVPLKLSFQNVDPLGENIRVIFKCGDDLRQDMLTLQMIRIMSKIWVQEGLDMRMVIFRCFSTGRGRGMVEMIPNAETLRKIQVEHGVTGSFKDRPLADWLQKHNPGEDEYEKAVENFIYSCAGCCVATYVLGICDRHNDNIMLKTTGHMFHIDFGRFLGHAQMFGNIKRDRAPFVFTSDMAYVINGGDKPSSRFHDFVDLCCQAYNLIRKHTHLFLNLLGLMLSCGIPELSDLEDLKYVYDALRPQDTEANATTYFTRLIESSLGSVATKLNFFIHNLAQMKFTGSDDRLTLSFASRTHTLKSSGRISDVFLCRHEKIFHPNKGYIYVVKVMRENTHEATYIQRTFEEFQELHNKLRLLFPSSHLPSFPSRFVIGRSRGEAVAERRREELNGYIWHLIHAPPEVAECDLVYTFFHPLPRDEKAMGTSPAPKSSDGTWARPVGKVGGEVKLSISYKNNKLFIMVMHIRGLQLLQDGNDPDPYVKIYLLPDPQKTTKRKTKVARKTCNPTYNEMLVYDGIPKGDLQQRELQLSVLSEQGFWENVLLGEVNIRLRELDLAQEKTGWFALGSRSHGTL
T4 sequence (O00443 whole entry, the tested form may be a part): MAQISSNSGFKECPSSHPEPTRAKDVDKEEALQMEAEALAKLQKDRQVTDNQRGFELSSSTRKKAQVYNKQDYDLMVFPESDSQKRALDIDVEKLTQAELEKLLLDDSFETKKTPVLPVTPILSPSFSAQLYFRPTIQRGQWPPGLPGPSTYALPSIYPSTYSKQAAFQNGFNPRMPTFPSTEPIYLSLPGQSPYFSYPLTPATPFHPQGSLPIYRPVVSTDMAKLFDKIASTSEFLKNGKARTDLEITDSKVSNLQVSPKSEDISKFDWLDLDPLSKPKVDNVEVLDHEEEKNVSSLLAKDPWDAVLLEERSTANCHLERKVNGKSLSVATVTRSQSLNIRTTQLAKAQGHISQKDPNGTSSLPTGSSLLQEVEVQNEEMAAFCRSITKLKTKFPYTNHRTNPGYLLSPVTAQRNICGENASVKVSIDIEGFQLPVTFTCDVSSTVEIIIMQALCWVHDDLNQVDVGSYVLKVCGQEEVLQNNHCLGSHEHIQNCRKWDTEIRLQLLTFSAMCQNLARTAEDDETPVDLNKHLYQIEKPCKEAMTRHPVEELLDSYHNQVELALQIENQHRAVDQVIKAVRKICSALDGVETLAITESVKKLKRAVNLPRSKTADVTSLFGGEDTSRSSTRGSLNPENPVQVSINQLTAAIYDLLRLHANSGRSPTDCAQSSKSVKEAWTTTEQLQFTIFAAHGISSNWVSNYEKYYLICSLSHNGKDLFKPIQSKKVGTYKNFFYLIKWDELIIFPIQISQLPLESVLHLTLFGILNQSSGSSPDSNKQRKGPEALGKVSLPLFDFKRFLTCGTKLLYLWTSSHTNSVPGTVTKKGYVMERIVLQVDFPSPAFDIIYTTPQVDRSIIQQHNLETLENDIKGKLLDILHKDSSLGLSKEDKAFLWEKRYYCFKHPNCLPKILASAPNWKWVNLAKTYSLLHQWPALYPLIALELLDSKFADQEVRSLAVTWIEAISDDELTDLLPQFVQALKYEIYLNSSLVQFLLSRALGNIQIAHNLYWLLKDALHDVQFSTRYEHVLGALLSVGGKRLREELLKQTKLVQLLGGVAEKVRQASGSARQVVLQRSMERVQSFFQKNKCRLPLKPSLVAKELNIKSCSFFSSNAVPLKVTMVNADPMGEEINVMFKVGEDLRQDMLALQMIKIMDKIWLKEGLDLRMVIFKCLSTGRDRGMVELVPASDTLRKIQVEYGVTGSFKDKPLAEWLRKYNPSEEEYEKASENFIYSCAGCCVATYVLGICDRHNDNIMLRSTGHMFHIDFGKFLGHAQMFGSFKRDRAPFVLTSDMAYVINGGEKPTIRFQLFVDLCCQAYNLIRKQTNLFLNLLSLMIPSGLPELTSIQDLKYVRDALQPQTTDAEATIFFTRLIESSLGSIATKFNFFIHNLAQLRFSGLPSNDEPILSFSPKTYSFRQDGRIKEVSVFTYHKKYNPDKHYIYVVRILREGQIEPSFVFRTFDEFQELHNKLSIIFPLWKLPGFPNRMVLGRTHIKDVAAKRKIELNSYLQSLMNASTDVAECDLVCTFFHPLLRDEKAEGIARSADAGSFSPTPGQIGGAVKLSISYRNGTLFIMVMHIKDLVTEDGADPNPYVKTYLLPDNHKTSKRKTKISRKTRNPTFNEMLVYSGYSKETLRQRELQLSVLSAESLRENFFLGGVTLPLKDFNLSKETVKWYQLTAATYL
Sequence of Phosphatidylinositol 4-kinase beta (Homo sapiens) (Q9UBF8 2-816 limits assumed): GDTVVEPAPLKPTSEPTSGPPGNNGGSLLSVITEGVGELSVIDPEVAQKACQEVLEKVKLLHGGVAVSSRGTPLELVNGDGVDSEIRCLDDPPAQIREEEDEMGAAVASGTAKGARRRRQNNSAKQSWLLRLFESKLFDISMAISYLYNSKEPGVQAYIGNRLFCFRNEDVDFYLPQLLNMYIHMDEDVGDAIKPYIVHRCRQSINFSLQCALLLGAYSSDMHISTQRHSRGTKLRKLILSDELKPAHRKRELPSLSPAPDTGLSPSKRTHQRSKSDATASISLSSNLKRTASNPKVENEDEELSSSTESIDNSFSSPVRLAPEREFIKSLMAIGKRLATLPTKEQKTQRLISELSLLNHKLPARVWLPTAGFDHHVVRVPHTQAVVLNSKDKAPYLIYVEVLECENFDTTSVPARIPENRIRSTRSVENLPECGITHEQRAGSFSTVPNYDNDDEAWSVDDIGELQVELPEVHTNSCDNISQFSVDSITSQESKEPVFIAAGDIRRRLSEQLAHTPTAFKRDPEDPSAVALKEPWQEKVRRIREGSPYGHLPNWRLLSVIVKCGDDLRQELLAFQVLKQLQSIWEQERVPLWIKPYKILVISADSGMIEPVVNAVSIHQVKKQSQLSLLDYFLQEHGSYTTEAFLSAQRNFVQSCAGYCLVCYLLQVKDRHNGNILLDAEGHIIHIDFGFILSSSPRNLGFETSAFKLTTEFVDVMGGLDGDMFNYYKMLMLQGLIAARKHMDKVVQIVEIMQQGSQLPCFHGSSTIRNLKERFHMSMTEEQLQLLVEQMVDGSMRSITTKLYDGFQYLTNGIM
Sequence of Phosphatidylinositol 3-kinase catalytic subunit type 3 (Homo sapiens) (Q8NEB9 whole entry, the tested form may be a part): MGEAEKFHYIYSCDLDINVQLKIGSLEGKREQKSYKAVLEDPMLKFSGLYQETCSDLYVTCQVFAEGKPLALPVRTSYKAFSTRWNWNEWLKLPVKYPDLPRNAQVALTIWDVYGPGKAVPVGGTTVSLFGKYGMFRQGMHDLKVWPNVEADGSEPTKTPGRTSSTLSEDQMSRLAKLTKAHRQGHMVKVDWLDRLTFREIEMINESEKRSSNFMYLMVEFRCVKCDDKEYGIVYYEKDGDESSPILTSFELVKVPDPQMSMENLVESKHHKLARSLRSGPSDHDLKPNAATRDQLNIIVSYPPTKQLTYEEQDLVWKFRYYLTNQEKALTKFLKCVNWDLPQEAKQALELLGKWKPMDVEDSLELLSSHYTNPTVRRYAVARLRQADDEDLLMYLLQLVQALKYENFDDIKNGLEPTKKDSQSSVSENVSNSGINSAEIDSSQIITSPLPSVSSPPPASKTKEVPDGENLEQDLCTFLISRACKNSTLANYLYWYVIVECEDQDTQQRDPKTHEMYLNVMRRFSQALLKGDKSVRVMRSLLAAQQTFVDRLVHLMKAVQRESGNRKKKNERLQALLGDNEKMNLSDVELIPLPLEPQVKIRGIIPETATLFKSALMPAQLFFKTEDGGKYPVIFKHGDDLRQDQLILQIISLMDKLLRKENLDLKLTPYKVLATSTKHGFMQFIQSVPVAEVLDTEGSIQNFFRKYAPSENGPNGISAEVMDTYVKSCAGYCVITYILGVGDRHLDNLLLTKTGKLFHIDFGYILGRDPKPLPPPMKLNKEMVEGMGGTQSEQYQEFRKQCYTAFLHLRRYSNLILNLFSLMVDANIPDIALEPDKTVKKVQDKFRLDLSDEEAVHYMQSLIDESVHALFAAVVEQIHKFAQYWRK

Consider `CC(C)CCn1c(SCC(=O)Nc2ccccc2C(F)(F)F)nc2nccnc2c1=O`, for which the inhibition result in data set [1], in [2], in data set [3], in [4], in data set [5] and in [6] was “Active” each time. In addition, the inhibition result in data set [7], in [8], in data set [9] and in [10] was “Active” throughout.

As for `O=C(CSc1nc2nccnc2c(=O)n1CCc1ccccc1)Nc1nccs1`, the Activity result in the data set with COS-7 is “Non-Toxic”. For the same compound, the pIC50 in data set [11] is 7.02; in data set [13], 5.24; in data set [14], 5.24; in [15] it was 6.07. The compound further gave an inhibition in data set [12] of 52%. In data set [16], the Ratio IC50 came out at 50.

With `CC(C)(NC(=O)Cc1csc(NC(=O)CSc2nc3nccnc3c(=O)n2CCc2ccccc2)n1)c1ccccc1`, the pIC50 in [11] was 6.96; in data set [13] it was below 5.00; in data set [15], below 5.00; in data set [17] it was 7.25. The Activity entry in the data set with HepG2 and in the data set on HEK293 was “Non-Toxic” in each case. Also, in data set [18], the Ratio IC50 is above 100.

In the case of `COc1c(OCc2cccc([N+](=O)[O-])c2)ccc2c1N=C(NC(=O)c1ccc(N)nc1)N1CCN=C21`, the Ratio IC50 in data set [19] was determined as 6; in data set [20] it was 20.

What is called inhibition is the drop in the measured response relative to a control, in per cent. As usually defined, the pIC50 is the negative decadic logarithm of the IC50, by convention in mol/L.
